Data from publication PMC8244865, “Recruitment of phospholipase Cγ1 to the non-structural membrane protein pK15 of Kaposi Sarcoma-associated herpesvirus promotes its Src-dependent phosphorylation” (PLoS Pathogens, 2021).

Assays:
[1] = tested on: PLCγ1 cSH2 domain (in tSH2 aa 545–772); assay: crystal structure with truncated PLCγ1 tSH2, cSH2 site; format: binding; details: truncated tSH2 (aa 545–772), resolution 2.1 Å
Procedure: A shortened version of the PLCγ1 tSH2 domain (aa 545–772) lacking the linker peptide connecting the PLCγ1 cSH2 and SH3 domains (see Results section) was cloned into a pET28a vector carrying an N-terminal His Tag and a SUMO sequence. Expression was carried out in E. coli and the protein was purified to homogeneity as described above. His-Tag and SUMO were proteolytically removed using SUMO protease (SIGMA) following the manufacturer’s instructions, and the cleaved protein purified on a HisTrap column. Fractions containing cleaved protein were further purified by size exclusion chromatography (SEC) using a Superdex 75 26/600 column (GE Healthcare) equilibrated with 50mM Tris pH7.5, 150mM NaCl and 1mM TCEP buffer. The purified protein in SEC buffer was added to lyophilized phosphorylated 12mer pK15 peptide (DDLpYEEVLFPRN) in a 1:8 molar ratio (Protein: peptide) at a final concentration of 3mg/ml of peptide and 7.5mg/ml protein. Crystals were grown at 293 K using the sitting-drop vapor diffusion method in drops containing 1μl protein solution mixed with 1 μL reservoir solution containing 30% PEG 4000, 0.1M TrisHCl pH 8.5 and 0.2M sodium acetate. The crystals were flash frozen in the mother liquor containing 30% ethylene glycol and diffraction data were collected at P13 at DESY-Hamburg. Data were processed, scaled and reduced with XDS [75], Pointless and programs from the CCP4 suite. […]

Src kinase = assay: in vitro phosphorylation of pK15 CT by Src; format: biochemical; details: human GST-6xHis Src or chicken 2xStrep Src
Description: We expressed and purified the pK15 cytoplasmic tail (pK15 CT) fused to GST at its N-terminal end in bacteria and phosphorylated it in vitro using a commercially obtained human GST-6xHis Src, or a recombinant chicken 2xStrep Src kinase expressed in insect cells. In parallel, the GST-pK15 CT domain carrying the Y^481F mutation, or GST protein alone, were subjected to the same procedure. […] Following in vitro phosphorylation, pK15 CT^WT and pK15 CT^Y481F were used to pull down transiently expressed (Fig 2A) or endogenous (Fig 2B) PLCγ1 from HEK 293 lysates.
The GST-fused cytoplasmic tail of pK15 (GST-pK15 CT) was in vitro phosphorylated by recombinant human GST-6xHis Src kinase (ActiveMotif, 0.4 μg/ml per kinase reaction, 10 minutes at 30°C), or a recombinant chicken 2xStrep-Src kinase (10 μg/ml per kinase reaction, 30 minutes at 25°C). GST-pK15 CT was used at 4.8 μM or 6 μM and 50 μl or 100 μl reaction volumes for AlphaLISA and 3–6 μl glutathione beads with K15 and 25 μl reaction volume for GST pulldown experiments. […]
Supplementary file ppat.1009635.s001.tif: S1 Fig Both pK15 Y^431 and Y^481 are phosphorylated by recombinant Src kinase. […] Proteins were then analysed by WB using an antibody to pTyr. […]

DDLpYEEVLFPRN [pK15 12mer, phosphorylated peptide representing the last 12 amino acids of pK15 CT (DDLp…)]
binding site occupancy in crystal structure [1]: unambiguously bound to the PLCγ1 cSH2 domain

B1: pK15 CT^WT: pK15 cytoplasmic tail fused to GST at its N-terminal end, phosphorylated in vitro by Src (protein)
chain: SQLLNEVELQEVNRDPPNVFGYASILVSGAEESREPSPQPDQSGMSILRVDGGSAFRIDTAQAATQPTDDLYEEVLFPRN
modifications: tyrosine-phosphorylated in vitro by Src; sites not stated for this construct; left off: GST, N-terminal, kept
pK15 bands detected after Src phosphorylation (pTyr Western blot) (Src kinase): a dominant (bottom) and a minor (top) pK15 band
